{"source": "the supplement of paper PMC10307832", "experiment_in_all_cases": "relative viability (nuclei count vs DMSO), 5 days (fraction); higher = more cells survive", "key": {"ChaGo-K-1": {"test_system": "ChaGo-K-1", "outline": "(§1)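 One day after seeding in 1536-well plates, lung cancer cell lines were dosed by pin tool. Dosing was either single-drug or a fixed anchor-drug dose plus five library-drug doses (not always all listed) in √10 steps. After 5 days, nuclei were stained in one fix-and-stain step and counted on 4× images, and relative viability is the nuclei count of treated wells over that of vehicle wells, given as the median of duplicate plates.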"}, "EMC-BAC-2": {"test_system": "EMC-BAC-2", "outline": "as §1"}, "EPLC-272H": {"test_system": "EPLC-272H", "outline": "as §1"}, "H3255": {"test_system": "H3255", "outline": "as §1"}, "HCC-44": {"test_system": "HCC-44", "outline": "as §1"}, "HCC-827": {"test_system": "HCC-827", "outline": "as §1"}, "LCLC-103H": {"test_system": "LCLC-103H", "outline": "as §1"}, "LCLC-97TM1": {"test_system": "LCLC-97TM1", "outline": "as §1"}, "NCI-H1355": {"test_system": "NCI-H1355", "outline": "as §1"}, "NCI-H1395": {"test_system": "NCI-H1395", "outline": "as §1"}, "NCI-H1651": {"test_system": "NCI-H1651", "outline": "as §1"}, "NCI-H1793": {"test_system": "NCI-H1793", "outline": "as §1"}, "NCI-H1944": {"test_system": "NCI-H1944", "outline": "as §1"}, "NCI-H1993": {"test_system": "NCI-H1993", "outline": "as §1"}, "NCI-H2085": {"test_system": "NCI-H2085", "outline": "as §1"}, "NCI-H2087": {"test_system": "NCI-H2087", "outline": "as §1"}, "NCI-H23": {"test_system": "NCI-H23", "outline": "as §1"}, "NCI-H2405": {"test_system": "NCI-H2405", "outline": "as §1"}, "NCI-H322M": {"test_system": "NCI-H322M", "outline": "as §1"}, "NCI-H650": {"test_system": "NCI-H650", "outline": "as §1"}}, "data": [{"smiles": "Clc1ccc(Nc2nnc(Cc3ccncc3)c3ccccc23)cc1", "note": "[Vatalanib] + NC(=O)Nc1cc(-c2cccc(F)c2)sc1C(=O)N[C@H]1CCCNC1 [AZD7762] (partner 0.2 µM)", "values": [{"measurement": "relative viability", "setting": "ChaGo-K-1; first compound 0.04 µM", "result": 0.941}, {"measurement": "relative viability", "setting": "ChaGo-K-1; first compound 0.1265 µM", "result": 0.845}, {"measurement": "relative viability", "setting": "ChaGo-K-1; first compound 0.4 µM", "result": 0.88}, {"measurement": "relative viability", "setting": "ChaGo-K-1; first compound 1.265 µM", "result": 0.865}, {"measurement": "relative viability", "setting": "ChaGo-K-1; first compound 4 µM", "result": 0.876}, {"measurement": "relative viability", "setting": "EMC-BAC-2; first compound 0.04 µM", "result": 1.05}, {"measurement": "relative viability", "setting": "EMC-BAC-2; first compound 0.1265 µM", "result": 0.991}, {"measurement": "relative viability", "setting": "EMC-BAC-2; first compound 0.4 µM", "result": 1.12}, {"measurement": "relative viability", "setting": "EMC-BAC-2; first compound 4 µM", "result": 1.15}, {"measurement": "relative viability", "setting": "EPLC-272H; first compound 0.04 µM", "result": 0.0728}, {"measurement": "relative viability", "setting": "EPLC-272H; first compound 0.1265 µM", "result": 0.167}, {"measurement": "relative viability", "setting": "EPLC-272H; first compound 0.4 µM", "result": 0.212}, {"measurement": "relative viability", "setting": "EPLC-272H; first compound 1.265 µM", "result": 0.216}, {"measurement": "relative viability", "setting": "EPLC-272H; first compound 4 µM", "result": 0.207}, {"measurement": "relative viability", "setting": "H3255; first compound 0.04 µM", "result": 0.829}, {"measurement": "relative viability", "setting": "H3255; first compound 0.1265 µM", "result": 0.892}, {"measurement": "relative viability", "setting": "H3255; first compound 0.4 µM", "result": 0.832}, {"measurement": "relative viability", "setting": "H3255; first compound 1.265 µM", "result": 0.732}, {"measurement": "relative viability", "setting": "H3255; first compound 4 µM", "result": 0.773}, {"measurement": "relative viability", "setting": "HCC-44; first compound 0.04 µM", "result": 1.01}, {"measurement": "relative viability", "setting": "HCC-44; first compound 0.1265 µM", "result": 1.03}, {"measurement": "relative viability", "setting": "HCC-44; first compound 0.4 µM", "result": 0.959}, {"measurement": "relative viability", "setting": "HCC-44; first compound 1.265 µM", "result": 0.983}, {"measurement": "relative viability", "setting": "HCC-44; first compound 4 µM", "result": 1}, {"measurement": "relative viability", "setting": "HCC-827; first compound 0.04 µM", "result": 0.187}, {"measurement": "relative viability", "setting": "HCC-827; first compound 0.1265 µM", "result": 0.282}, {"measurement": "relative viability", "setting": "HCC-827; first compound 1.265 µM", "result": 0.183}, {"measurement": "relative viability", "setting": "HCC-827; first compound 4 µM", "result": 0.194}, {"measurement": "relative viability", "setting": "LCLC-103H; first compound 0.04 µM", "result": 0.797}, {"measurement": "relative viability", "setting": "LCLC-103H; first compound 0.1265 µM", "result": 0.714}, {"measurement": "relative viability", "setting": "LCLC-103H; first compound 0.4 µM", "result": 0.803}, {"measurement": "relative viability", "setting": "LCLC-103H; first compound 1.265 µM", "result": 0.806}, {"measurement": "relative viability", "setting": "LCLC-103H; first compound 4 µM", "result": 0.725}, {"measurement": "relative viability", "setting": "LCLC-97TM1; first compound 0.04 µM", "result": 0.24}, {"measurement": "relative viability", "setting": "LCLC-97TM1; first compound 0.1265 µM", "result": 0.263}, {"measurement": "relative viability", "setting": "LCLC-97TM1; first compound 0.4 µM", "result": 0.222}, {"measurement": "relative viability", "setting": "LCLC-97TM1; first compound 1.265 µM", "result": 0.172}, {"measurement": "relative viability", "setting": "LCLC-97TM1; first compound 4 µM", "result": 0.23}, {"measurement": "relative viability", "setting": "NCI-H1355; first compound 0.04 µM", "result": 0.792}, {"measurement": "relative viability", "setting": "NCI-H1355; first compound 0.1265 µM", "result": 0.745}, {"measurement": "relative viability", "setting": "NCI-H1355; first compound 0.4 µM", "result": 0.767}, {"measurement": "relative viability", "setting": "NCI-H1355; first compound 1.265 µM", "result": 0.578}, {"measurement": "relative viability", "setting": "NCI-H1355; first compound 4 µM", "result": 0.597}, {"measurement": "relative viability", "setting": "NCI-H1395; first compound 0.04 µM", "result": 0.381}, {"measurement": "relative viability", "setting": "NCI-H1395; first compound 0.1265 µM", "result": 0.381}, {"measurement": "relative viability", "setting": "NCI-H1395; first compound 0.4 µM", "result": 0.389}, {"measurement": "relative viability", "setting": "NCI-H1395; first compound 4 µM", "result": 0.394}, {"measurement": "relative viability", "setting": "NCI-H1651; first compound 0.04 µM", "result": 0.441}, {"measurement": "relative viability", "setting": "NCI-H1651; first compound 0.1265 µM", "result": 0.471}, {"measurement": "relative viability", "setting": "NCI-H1651; first compound 0.4 µM", "result": 0.46}, {"measurement": "relative viability", "setting": "NCI-H1651; first compound 1.265 µM", "result": 0.359}, {"measurement": "relative viability", "setting": "NCI-H1651; first compound 4 µM", "result": 0.4}, {"measurement": "relative viability", "setting": "NCI-H1793; first compound 0.04 µM", "result": 0.518}, {"measurement": "relative viability", "setting": "NCI-H1793; first compound 0.1265 µM", "result": 0.311}, {"measurement": "relative viability", "setting": "NCI-H1793; first compound 0.4 µM", "result": 0.714}, {"measurement": "relative viability", "setting": "NCI-H1793; first compound 1.265 µM", "result": 0.243}, {"measurement": "relative viability", "setting": "NCI-H1793; first compound 4 µM", "result": 0.286}, {"measurement": "relative viability", "setting": "NCI-H1944; first compound 0.04 µM", "result": 0.467}, {"measurement": "relative viability", "setting": "NCI-H1944; first compound 0.1265 µM", "result": 0.463}, {"measurement": "relative viability", "setting": "NCI-H1944; first compound 0.4 µM", "result": 0.623}, {"measurement": "relative viability", "setting": "NCI-H1944; first compound 1.265 µM", "result": 0.46}, {"measurement": "relative viability", "setting": "NCI-H1944; first compound 4 µM", "result": 0.468}, {"measurement": "relative viability", "setting": "NCI-H1993; first compound 0.04 µM", "result": 0.4}, {"measurement": "relative viability", "setting": "NCI-H1993; first compound 0.1265 µM", "result": 0.934}, {"measurement": "relative viability", "setting": "NCI-H1993; first compound 0.4 µM", "result": 0.728}, {"measurement": "relative viability", "setting": "NCI-H1993; first compound 1.265 µM", "result": 0.713}, {"measurement": "relative viability", "setting": "NCI-H1993; first compound 4 µM", "result": 0.737}, {"measurement": "relative viability", "setting": "NCI-H2085; first compound 0.04 µM", "result": 1.12}, {"measurement": "relative viability", "setting": "NCI-H2085; first compound 0.1265 µM", "result": 1}, {"measurement": "relative viability", "setting": "NCI-H2085; first compound 0.4 µM", "result": 0.998}, {"measurement": "relative viability", "setting": "NCI-H2085; first compound 1.265 µM", "result": 0.862}, {"measurement": "relative viability", "setting": "NCI-H2085; first compound 4 µM", "result": 0.928}, {"measurement": "relative viability", "setting": "NCI-H2087; first compound 0.04 µM", "result": 1.28}, {"measurement": "relative viability", "setting": "NCI-H2087; first compound 0.1265 µM", "result": 1.25}, {"measurement": "relative viability", "setting": "NCI-H2087; first compound 0.4 µM", "result": 1.4}, {"measurement": "relative viability", "setting": "NCI-H2087; first compound 1.265 µM", "result": 1.19}, {"measurement": "relative viability", "setting": "NCI-H2087; first compound 4 µM", "result": 1.15}, {"measurement": "relative viability", "setting": "NCI-H23; first compound 0.04 µM", "result": 0.269}, {"measurement": "relative viability", "setting": "NCI-H23; first compound 0.1265 µM", "result": 0.229}, {"measurement": "relative viability", "setting": "NCI-H23; first compound 0.4 µM", "result": 0.228}, {"measurement": "relative viability", "setting": "NCI-H23; first compound 1.265 µM", "result": 0.259}, {"measurement": "relative viability", "setting": "NCI-H23; first compound 4 µM", "result": 0.266}, {"measurement": "relative viability", "setting": "NCI-H2405; first compound 0.04 µM", "result": 0.799}, {"measurement": "relative viability", "setting": "NCI-H2405; first compound 0.1265 µM", "result": 0.694}, {"measurement": "relative viability", "setting": "NCI-H2405; first compound 0.4 µM", "result": 0.725}, {"measurement": "relative viability", "setting": "NCI-H2405; first compound 4 µM", "result": 0.696}, {"measurement": "relative viability", "setting": "NCI-H322M; first compound 0.04 µM", "result": 0.543}, {"measurement": "relative viability", "setting": "NCI-H322M; first compound 0.1265 µM", "result": 0.527}, {"measurement": "relative viability", "setting": "NCI-H322M; first compound 0.4 µM", "result": 0.503}, {"measurement": "relative viability", "setting": "NCI-H322M; first compound 4 µM", "result": 0.47}, {"measurement": "relative viability", "setting": "NCI-H650; first compound 0.04 µM", "result": 1.03}, {"measurement": "relative viability", "setting": "NCI-H650; first compound 0.1265 µM", "result": 0.916}, {"measurement": "relative viability", "setting": "NCI-H650; first compound 0.4 µM", "result": 0.937}, {"measurement": "relative viability", "setting": "NCI-H650; first compound 1.265 µM", "result": 0.883}, {"measurement": "relative viability", "setting": "NCI-H650; first compound 4 µM", "result": 0.907}]}]}
